Test results from patent publication US7659404B2, “Broad spectrum 2-(substituted-amino)-benzothiazole sulfonamide HIV protease inhibitors” (Tibotec Pharmaceuticals Ltd., priority 2001, dated 2010).

What was measured:
[1] = system: clinically isolated HIV strain J; type: cell-based; details: FR=EC50(mutant strain)/EC50(HIV-1 strain LAI)
Procedure: (§1) HIV- or mock-infected MT4 cells were incubated for five days in the presence of various concentrations of the inhibitor. […] Cell viability is measured by measuring the concentration of MTT, a yellow, water soluble tetrazolium dye that is converted to a purple, water insoluble formazan in the mitochondria of living cells only. Upon solubilization of the resulting formazan crystals with isopropanol, the absorbance of the solution is monitored at 540 nm. The values correlate directly to the number of living cells remaining in the culture at the completion of the five day incubation. The inhibitory activity of the compound was monitored on the virus-infected cells and was expressed as EC50 and EC90. These values represent the amount of the compound required to protect 50% and 90%, respectively, of the cells from the cytopathogenic effect of the virus. The toxicity of the compound was measured on the mock-infected cells and was expressed as CC50, which represents the concentration of compound required to inhibit the growth of the cells by 50%. The selectivity index (SI) (ratio CC50/EC50) is an indication of the selectivity of the anti-HIV activity of the inhibitor.
(§2) Because of the increasing emergence of drug resistant HIV strains, the present compounds were tested for their potency against clinically isolated HIV strains harboring several mutations.
(§3) As a measure of the broad spectrum activity of the present compounds, the fold resistance (FR) defined as FR=EC50(mutant strain)/EC50(HIV-1 strain LAI).

[2] = system: clinically isolated HIV strain H; type: cell-based; details: FR=EC50(mutant strain)/EC50(HIV-1 strain LAI)
Procedure: as §1, §2, §3

[3] = system: clinically isolated HIV strain I; type: cell-based; details: FR=EC50(mutant strain)/EC50(HIV-1 strain LAI)
Procedure: as §1, §2, §3

[4] = system: clinically isolated HIV strain O; type: cell-based; details: FR=EC50(mutant strain)/EC50(HIV-1 strain LAI)
Procedure: as §1, §2, §3

[5] = system: clinically isolated HIV strain T; type: cell-based; details: FR=EC50(mutant strain)/EC50(HIV-1 strain LAI)
Procedure: as §1, §2, §3

[6] = system: virus strain S (R13080); assay: microbe, parasite or virus in culture; type: cell-based, HIV; details: FR=EC50(mutant strain)/EC50(HIV-1 strain LAI); strain S
In short: (§4)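 Activity against mutation-bearing clinical isolates is given as fold resistance, the ratio of mutant to HIV-1 LAI EC50. EC50 and EC90 reflect 50% and 90% protection of infected MT4 cells over a five-day culture. Cell survival was quantified by MTT formazan absorbance at 540 nm.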

[7] = system: virus strain F (R13025); assay: microbe, parasite or virus in culture; type: cell-based, HIV; details: FR=EC50(mutant strain)/EC50(HIV-1 strain LAI); strain F
In short: as §4

Structure (SMILES)	fold resistance (FR), strain J [1]	fold resistance (FR), strain H [2]	fold resistance (FR), strain I [3]	fold resistance (FR), strain O [4]	fold resistance (FR), strain T [5]	fold resistance (FR), strain S [6]	fold resistance (FR), strain F [7]
Cc1cccc(C)c1OCC(=O)N[C@@H](Cc1ccccc1)[C@H](O)CN(CC(C)C)S(=O)(=O)c1ccc2nc(NCCN3CCCC3)sc2c1 [Compound 46]	2.8	1.3	3.3	3.2	44.4	7.1	4.7
CC(C)CN(C[C@@H](O)[C@H](Cc1ccccc1)NC(=O)OCc1cncs1)S(=O)(=O)c1ccc2nc(NCCN(C)C)sc2c1 [Compound 48]	6.5	2.5	2.5	4.3	175.0	13.8	9.4
CC(C)CN(C[C@@H](O)[C@H](Cc1ccccc1)NC(=O)OCc1cncs1)S(=O)(=O)c1ccc2nc(NCCN3CCCC3)sc2c1 [Compound 49]	5.5	3.6	2.9	3.9	114.0	17.8	12.8
CC(C)CN(C[C@@H](O)[C@H](Cc1ccccc1)NC(=O)OCc1cncs1)S(=O)(=O)c1ccc2nc(NCCN3CCCC3)sc2c1.O=C(O)C(F)(F)F [Compound 50]	7.0	1.4	1.7	3.5	165.5	27.9	8.6
CC(C)CN(C[C@@H](O)[C@H](Cc1ccccc1)NC(=O)OCc1cncs1)S(=O)(=O)c1ccc2nc(NCCCN(C)C)sc2c1 [Compound 51]	0.9	1.8	2.6	0.6	51.8	2.1	2.9
CC(C)CN(C[C@@H](O)[C@H](Cc1ccccc1)NC(=O)OCc1cccnc1)S(=O)(=O)c1ccc2nc(NCCCN(C)C)sc2c1 [Compound 52]	2.7	1.8	1.3	1.6	124.5	20.3	10.2
Cc1cccc(C)c1OCC(=O)N[C@@H](Cc1ccccc1)[C@H](O)CN(CC(C)C)S(=O)(=O)c1ccc2nc(NCCCN(C)C)sc2c1 [Compound 53]	1.4	0.6	1.3	1.6	49.8	3.8	2.1
Cc1c(N)cccc1C(=O)N[C@@H](Cc1ccccc1)[C@H](O)CN(CC(C)C)S(=O)(=O)c1ccc2nc(NCCCN(C)C)sc2c1 [Compound 54]	0.4	0.6	0.9	0.4	1.4	1.8	3.6
CC(C)CN(C[C@@H](O)[C@H](Cc1ccccc1)NC=O)S(=O)(=O)c1ccc2nc(NC(=O)CN3CCCC3)sc2c1 [Compound 55]	26.2	10.0	9.1	26.2	26.2	26.2	26.2
CC(C)CN(C[C@@H](O)[C@H](Cc1ccccc1)NC(=O)OCc1cncs1)S(=O)(=O)c1ccc2nc(NCCN3CCNCC3)sc2c1 [Compound 57]	1.3	1.6	1.3	1.3	9.0	1.6	1.3
CC(C)CN(C[C@@H](O)[C@H](Cc1ccccc1)NC(=O)OCc1cccnc1)S(=O)(=O)c1ccc2nc(NCCN3CCNCC3)sc2c1 [Compound 58]	2.0	1.6	0.7	1.7	27.0	4.4	2.1
Cc1cccc(C)c1OCC(=O)N[C@@H](Cc1ccccc1)[C@H](O)CN(CC(C)C)S(=O)(=O)c1ccc2nc(NCCN3CCNCC3)sc2c1 [Compound 59]	1.7	1.2	1.2	2.0	22.2	4.7	2.3
Cc1c(N)cccc1C(=O)N[C@@H](Cc1ccccc1)[C@H](O)CN(CC(C)C)S(=O)(=O)c1ccc2nc(NCCN3CCNCC3)sc2c1 [Compound 60]	0.6	1.3	1.3	1.1	4.1	1.4	1.2
CC(C)CN(C[C@@H](O)[C@H](Cc1ccccc1)NC(=O)OCc1cccnc1)S(=O)(=O)c1ccc2nc(NC(=O)CN3CCCC3)sc2c1 [Compound 61]	10.6	5.2	4.8	7.1	1090.0	80.0	32.7
Cc1c(N)cccc1C(=O)N[C@@H](Cc1ccccc1)[C@H](O)CN(CC(C)C)S(=O)(=O)c1ccc2nc(NC(=O)CN3CCCC3)sc2c1 [Compound 62]	2.4	3.2	2.8	2.7	277.9	16.1	14.5
Cc1c(N)cccc1C(=O)N[C@@H](Cc1ccccc1)[C@H](O)CN(CC(C)C)S(=O)(=O)c1ccc2nc(NC(=O)CN3CCN(C)CC3)sc2c1.O=C(O)C(F)(F)F [Compound 66]	1.2	0.9	1.0	1.0	87.9	5.6	4.0
